Measured values: patent US8343951B2, “Volatile sulfide production inhibitor and method for inhibiting the production of volatile sulfide using the inhibitor” (Kabushiki Kaisha Hayashibara Seibutsu Kagaku Kenkyujo, priority 2006, dated 2013)

Key:
[1] = Hydrogen sulfide production from heated mackerel meat homogenate (headspace detecting tube); conditions: for Produced Volatile sulfide: hydrogen sulfide in headspace; for Inhibiting rate of volatile sulfide production: hydrogen sulfide, relative to control
Experimental: AA-2G (reagent grade, commercialized by Hayashibara Biochemical Laboratories, Inc.) was dissolved in distilled water to give a solution of a concentration of 10%. A certain amount of the solution and 5 ml of 500 mM phosphate buffer (pH 7.0) were put into measuring flask and filled up to 50 ml to give the test solutions containing AA-2G at the twofold concentration described in Table 1. Also the test solutions containing ascorbic acid were prepared in the same way except for using ascorbic acid (guaranteed regent) in place of AA-2G. Five ml of 500 mM phosphate buffer (pH 7.0) was filled up to 50 ml with distilled water to give control solution. Edible part of commercial mackerel fillet without bone and skin was chopped with trio blender and homogeneously stirred to make minced mackerel. Forty-five grams of the minced mackerel was put into a beaker and added with 45 g of the test solution or control solution to give the samples at the concentration of AA-2G or ascorbic acid described in Table 1. The samples were treated with homogenizer (produced by IKA Works Inc.) at ice-chilled temperature to give the homogenates as the test samples. PH of the homogenates is from 6.21 to 6.38. Ten grams of the above samples were put into 20 ml-vials and sealed with butyl rubber cap and aluminum seal. They were heated in boiled water bath for 15 minutes and cooled in running cool water. After cooled, they were heated on heating block (80° C.) for 10 minutes and the solidified samples were broken with vortex mixer. The amounts of hydrogen sulfide in the headspace gas were measured by hydrogen sulfide detecting tube ([…] No. 4LT, produced by GL Sciences Inc.). Also the inhibiting rate (%) of hydrogen sulfide production were shown in Table 1, which were obtained by subtracting the percentage amounts of hydrogen sulfide produced from 1 g of mackerel meats added with test solutions relative to the amount of hydrogen sulfide produced from 1 g of mackerel meat added with control solution from 100 to obtain.

[2] = Dimethyl-sulfide and dimethyl-disulfide production from heated milk (headspace gas chromatography); conditions: for Produced Dimethyl-disulfide / Produced Dimethyl-sulfide: milk heated 130° C. one minute; for production of volatile sulfides (dimethyl-sulfide and dimethyl-disulfide) from the test solutions / Produced Volatile sulfide: milk; for Inhibiting rate of volatile sulfide production: relative to control milk; for Produced Volatile sulfide: sum of dimethyl-sulfide and dimethyl-disulfide
Experimental: AA-2G (reagent grade, commercialized by Hayashibara Biochemical Laboratories, Inc.) was added in commercial milk to give the concentrations described in Table 2 to make the test solutions. Test solutions containing ascorbic acid were prepared in the same way except for using ascorbic acid (guaranteed regent) in place of AA-2G. The commercial milk was used plain as control. Sensory test of the solutions was performed by 11 panelists to evaluate the taste of each test solution added with AA-2G or ascorbic acid as being different (D) from control or as being the same (S) as control. As a result, eight or more of the 11 panelists gave a same evaluation to each test solution.
One ml of the above samples were put into 20 ml-vials and sealed with butyl rubber cap and aluminum seal. After heated at 130° C. for one minute, the amounts of dimethyl-sulfide and dimethyl-disulfide in the headspace were measured by gas chromatography in conventional way. The sums of them were shown as the amounts of volatile sulfide in Table 2. Also the inhibiting rates (%) of volatile sulfide production were shown in Table 2, which were obtained by subtracting the percentage amounts of volatile sulfide produced from ml of the test solutions relative to the amount of volatile sulfide produced from 1 ml of control (milk) from 100 to obtain.

O=C1O[C@H]([C@@H](O)CO)C(O)=C1O [Ascorbic acid, L-ascorbic acid, reference compound]
hydrogen sulfide production from homogenate of mackerel meat ([1]; concentration of 0.005% or less): equal to control | hydrogen sulfide production from homogenate of mackerel meat ([1]; concentration of 0.01% or more): enhanced | Produced Volatile sulfide ([1]; additive 0.0001% in sample): 44.1 μg/g-mackerel | Produced Volatile sulfide ([1]; additive 0.0005% in sample): 43.4 μg/g-mackerel | Produced Volatile sulfide ([1]; additive 0.001% in sample): 43.6 μg/g-mackerel | Produced Volatile sulfide ([1]; additive 0.005% in sample): 42.9 μg/g-mackerel | Produced Volatile sulfide ([1]; additive 0.01% in sample): 71.7 μg/g-mackerel | Produced Volatile sulfide ([1]; additive 0.025% in sample): 133.9 μg/g-mackerel | Produced Volatile sulfide ([1]; additive 0.05% in sample): 139.3 μg/g-mackerel | Produced Volatile sulfide ([1]; additive 0.1% in sample): 207.1 μg/g-mackerel | Produced Volatile sulfide ([1]; additive 0.5% in sample): 257.4 μg/g-mackerel | Produced Volatile sulfide ([1]; additive 1.0% in sample): 287.8 μg/g-mackerel | Inhibiting rate of volatile sulfide production ([1]; additive 0.0001% in sample): −2.1% | Inhibiting rate of volatile sulfide production ([1]; additive 0.0005% in sample): −0.5% | Inhibiting rate of volatile sulfide production ([1]; additive 0.001% in sample): −0.9% | Inhibiting rate of volatile sulfide production ([1]; additive 0.005% in sample): 0.7% | Inhibiting rate of volatile sulfide production ([1]; additive 0.01% in sample): −66.0% | Inhibiting rate of volatile sulfide production ([1]; additive 0.025% in sample): −210.0% | Inhibiting rate of volatile sulfide production ([1]; additive 0.05% in sample): −222.5% | Inhibiting rate of volatile sulfide production ([1]; additive 0.1% in sample): −379.4% | Inhibiting rate of volatile sulfide production ([1]; additive 0.5% in sample): −495.8% | Produced Dimethyl-disulfide ([2]; additive 0.0001% in sample): 0.56 μg/ml-milk | Produced Dimethyl-sulfide ([2]; additive 0.0001% in sample): 1.32 μg/ml-milk | Produced Dimethyl-disulfide ([2]; additive 0.0005% in sample): 0.54 μg/ml-milk | Produced Dimethyl-sulfide ([2]; additive 0.0005% in sample): 1.41 μg/ml-milk | Produced Dimethyl-disulfide ([2]; additive 0.001% in sample): 0.51 μg/ml-milk | Produced Dimethyl-sulfide ([2]; additive 0.001% in sample): 1.28 μg/ml-milk | Produced Dimethyl-disulfide ([2]; additive 0.005% in sample): 0.24 μg/ml-milk | Produced Dimethyl-sulfide ([2]; additive 0.005% in sample): 0.71 μg/ml-milk | Produced Dimethyl-disulfide ([2]; additive 0.01% in sample): 0.21 μg/ml-milk | Produced Dimethyl-sulfide ([2]; additive 0.01% in sample): 0.45 μg/ml-milk | Produced Dimethyl-disulfide ([2]; additive 0.05% in sample): 0.18 μg/ml-milk | Produced Dimethyl-sulfide ([2]; additive 0.05% in sample): 0.54 μg/ml-milk | Produced Dimethyl-disulfide ([2]; additive 0.1% in sample): 0.27 μg/ml-milk | Produced Dimethyl-sulfide ([2]; additive 0.1% in sample): 0.61 μg/ml-milk | Produced Dimethyl-disulfide ([2]; additive 0.5% in sample): 0.31 μg/ml-milk | Produced Dimethyl-sulfide ([2]; additive 0.5% in sample): 0.74 μg/ml-milk | Produced Dimethyl-disulfide ([2]; additive 2.5% in sample): 0.38 μg/ml-milk | Produced Dimethyl-sulfide ([2]; additive 2.5% in sample): 1.07 μg/ml-milk | production of volatile sulfides (dimethyl-sulfide and dimethyl-disulfide) from the test solutions ([2]; concentration of 0.001% or less): equal to control | production of volatile sulfides (dimethyl-sulfide and dimethyl-disulfide) from the test solutions ([2]; concentration of 0.005%): inhibited | Inhibiting rate of volatile sulfide production ([2]; additive 0.0001% in sample): 0.5% | Inhibiting rate of volatile sulfide production ([2]; additive 0.0005% in sample): −3.2% | Inhibiting rate of volatile sulfide production ([2]; additive 0.001% in sample): 5.3% | Inhibiting rate of volatile sulfide production ([2]; additive 0.005% in sample): 49.7% | Inhibiting rate of volatile sulfide production ([2]; additive 0.01% in sample): 65.1% | Inhibiting rate of volatile sulfide production ([2]; additive 0.05% in sample): 61.9% | Inhibiting rate of volatile sulfide production ([2]; additive 0.1% in sample): 53.4% | Inhibiting rate of volatile sulfide production ([2]; additive 0.5% in sample): 44.4% | Inhibiting rate of volatile sulfide production ([2]; additive 2.5% in sample): 23.3% | Produced Volatile sulfide ([2]; additive 0.0001% in sample): 1.88 µg/mL | Produced Volatile sulfide ([2]; additive 0.0005% in sample): 1.95 µg/mL | Produced Volatile sulfide ([2]; additive 0.001% in sample): 1.79 µg/mL | Produced Volatile sulfide ([2]; additive 0.005% in sample): 0.95 µg/mL | Produced Volatile sulfide ([2]; additive 0.01% in sample): 0.66 µg/mL | Produced Volatile sulfide ([2]; additive 0.05% in sample): 0.72 µg/mL | Produced Volatile sulfide ([2]; additive 0.1% in sample): 0.88 µg/mL | Produced Volatile sulfide ([2]; additive 0.5% in sample): 1.05 µg/mL | Produced Volatile sulfide ([2]; additive 2.5% in sample): 1.45 µg/mL
